Among the data in the supplement of paper PMC10307832 are relative viability values, retold here.

Assay in all cases: relative viability (nuclei count vs DMSO), 5 days (fraction); higher = more cells survive
Compound in the test “GSK-J4 + Lapatinib”: CCOC(=O)CCNc1cc(N2CCc3ccccc3CC2)nc(-c2ccccn2)n1 [GSK-J4] + CS(=O)(=O)CCNCc1ccc(-c2ccc3ncnc(Nc4ccc(OCc5cccc(F)c5)c(Cl)c4)c3c2)o1 [Lapatinib] (partner 2 µM)
Summed up: (§1)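 Relative viability equals treated-well nuclei counts divided by vehicle-well nuclei counts. Counts came from 4× images of lung cancer cell lines grown in 1536-well plates for 5 days after pin-tool dosing on the day after seeding. Dosing used one drug alone or a fixed anchor-drug dose plus five library-drug doses (not always all listed) in √10 steps, and values are medians of duplicate plates.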

Compound in the test “AZ3146 + Pictilisib”: CN1CCC(CC1)OC2=CC(=C(C=C2)NC3=NC=C4C(=N3)N(C(=O)N4C)C5CCCC5)OC [AZ3146] + CS(=O)(=O)N1CCN(Cc2cc3nc(-c4cccc5[nH]ncc45)nc(N4CCOCC4)c3s2)CC1 [Pictilisib] (partner 1 µM)
Summed up: as §1

Compound in the test “AZ3146 + Pemetrexed”: CN1CCC(CC1)OC2=CC(=C(C=C2)NC3=NC=C4C(=N3)N(C(=O)N4C)C5CCCC5)OC [AZ3146] + Nc1nc2[nH]cc(CCc3ccc(C(=O)N[C@@H](CCC(=O)O)C(=O)O)cc3)c2c(=O)[nH]1 [Pemetrexed] (partner 0.2 µM)
Summed up:
as §1

Compound in the test “AZ3146 + Navitoclax”: CN1CCC(CC1)OC2=CC(=C(C=C2)NC3=NC=C4C(=N3)N(C(=O)N4C)C5CCCC5)OC [AZ3146] + CC1(C)CCC(c2ccc(Cl)cc2)=C(CN2CCN(c3ccc(C(=O)NS(=O)(=O)c4ccc(N[C@H](CCN5CCOCC5)CSc5ccccc5)c(S(=O)(=O)C(F)(F)F)c4)cc3)CC2)C1 [Navitoclax] (partner 0.5 µM)
Summed up: as §1

Take UMC-11: the relative viability with GSK-J4 + Lapatinib (first compound 0.5 µM) was 1.07; with GSK-J4 + Lapatinib (first compound 1.581 µM), 0.465; with GSK-J4 + Lapatinib (first compound 5 µM), 0.611; in the test with GSK-J4 + Lapatinib (first compound 15.81 µM), 1.06; in the test with GSK-J4 + Lapatinib (first compound 50 µM), 0.808; in the test with AZ3146 + Pictilisib (first compound 0.08 µM) it was 0.698. For the same cell line, the relative viability with AZ3146 + Pictilisib (first compound 0.253 µM) stood at 0.99; with AZ3146 + Pictilisib (first compound 0.8 µM), 0.706; with AZ3146 + Pictilisib (first compound 2.53 µM) it was 0.802; with AZ3146 + Pictilisib (first compound 8 µM) it was 0.513; with AZ3146 + Pemetrexed (first compound 0.08 µM), 0.643; in the test with AZ3146 + Pemetrexed (first compound 0.253 µM), 0.819. The relative viability with AZ3146 + Pemetrexed (first compound 0.8 µM) came to 0.782; in the test with AZ3146 + Pemetrexed (first compound 2.53 µM), 0.775; with AZ3146 + Pemetrexed (first compound 8 µM), 0.43; in the test with AZ3146 + Navitoclax (first compound 0.08 µM), 0.32; in the test with AZ3146 + Navitoclax (first compound 0.253 µM), 0.27; with AZ3146 + Navitoclax (first compound 0.8 µM), 0.302. Besides, the relative viability in the test with AZ3146 + Navitoclax (first compound 2.53 µM) came out at 0.312; with AZ3146 + Navitoclax (first compound 8 µM), 0.252.
